Measurements from ChEMBL document CHEMBL1148556, “Synthesis and preliminary biological evaluation of (2S,1'R,2'S)- and (2S,1'S,2'R)-2-(2'-phosphonocyclopropyl)glycines, two novel conformationally constrained l-AP4 analogues” (Bioorg Med Chem Lett, 2006).

Assays:
[1] = target: Metabotropic glutamate receptor 6 (Rattus norvegicus, UniProt P35349); assay: Activity at rat mGluR6 by measuring cAMP formation in CHO cells; type: functional, cell-based
[2] = target: T1, Metabotropic glutamate receptor 4 (Rattus norvegicus, UniProt P31423); assay: Displacement of [3H]L-AP4 from rat mGluR4 expressed in BHK cells; type: cell-based
T1 sequence (P31423 whole entry): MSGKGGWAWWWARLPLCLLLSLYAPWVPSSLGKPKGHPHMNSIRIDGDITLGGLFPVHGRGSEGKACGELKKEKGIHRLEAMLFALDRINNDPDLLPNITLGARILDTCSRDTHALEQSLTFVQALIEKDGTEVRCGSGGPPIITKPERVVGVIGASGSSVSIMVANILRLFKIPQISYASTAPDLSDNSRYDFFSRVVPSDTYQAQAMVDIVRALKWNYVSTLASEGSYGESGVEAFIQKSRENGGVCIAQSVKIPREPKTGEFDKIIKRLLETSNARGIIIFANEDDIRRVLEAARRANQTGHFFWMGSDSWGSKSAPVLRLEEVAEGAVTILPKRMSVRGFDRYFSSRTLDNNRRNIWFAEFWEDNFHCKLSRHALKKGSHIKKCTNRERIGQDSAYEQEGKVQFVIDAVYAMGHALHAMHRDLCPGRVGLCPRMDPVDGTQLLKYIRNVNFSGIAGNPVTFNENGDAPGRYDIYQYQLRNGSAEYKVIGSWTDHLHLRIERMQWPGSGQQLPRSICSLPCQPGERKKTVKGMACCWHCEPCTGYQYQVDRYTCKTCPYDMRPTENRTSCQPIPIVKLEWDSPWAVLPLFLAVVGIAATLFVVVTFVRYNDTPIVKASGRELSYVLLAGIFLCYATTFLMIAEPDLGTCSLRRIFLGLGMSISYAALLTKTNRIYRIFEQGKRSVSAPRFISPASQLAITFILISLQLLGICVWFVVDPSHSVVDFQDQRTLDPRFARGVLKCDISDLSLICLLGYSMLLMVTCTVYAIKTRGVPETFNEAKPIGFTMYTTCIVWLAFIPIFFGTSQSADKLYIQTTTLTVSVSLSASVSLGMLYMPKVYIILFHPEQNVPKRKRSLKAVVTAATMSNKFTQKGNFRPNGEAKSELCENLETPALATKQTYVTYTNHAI

[3] = target: Metabotropic glutamate receptor 8 (Rattus norvegicus, UniProt P70579); assay: Displacement of [3H]LY341495 from rat mGluR8 expressed in BHK cells; type: cell-based
Metabotropic glutamate receptor 8, sequence (P70579 whole entry): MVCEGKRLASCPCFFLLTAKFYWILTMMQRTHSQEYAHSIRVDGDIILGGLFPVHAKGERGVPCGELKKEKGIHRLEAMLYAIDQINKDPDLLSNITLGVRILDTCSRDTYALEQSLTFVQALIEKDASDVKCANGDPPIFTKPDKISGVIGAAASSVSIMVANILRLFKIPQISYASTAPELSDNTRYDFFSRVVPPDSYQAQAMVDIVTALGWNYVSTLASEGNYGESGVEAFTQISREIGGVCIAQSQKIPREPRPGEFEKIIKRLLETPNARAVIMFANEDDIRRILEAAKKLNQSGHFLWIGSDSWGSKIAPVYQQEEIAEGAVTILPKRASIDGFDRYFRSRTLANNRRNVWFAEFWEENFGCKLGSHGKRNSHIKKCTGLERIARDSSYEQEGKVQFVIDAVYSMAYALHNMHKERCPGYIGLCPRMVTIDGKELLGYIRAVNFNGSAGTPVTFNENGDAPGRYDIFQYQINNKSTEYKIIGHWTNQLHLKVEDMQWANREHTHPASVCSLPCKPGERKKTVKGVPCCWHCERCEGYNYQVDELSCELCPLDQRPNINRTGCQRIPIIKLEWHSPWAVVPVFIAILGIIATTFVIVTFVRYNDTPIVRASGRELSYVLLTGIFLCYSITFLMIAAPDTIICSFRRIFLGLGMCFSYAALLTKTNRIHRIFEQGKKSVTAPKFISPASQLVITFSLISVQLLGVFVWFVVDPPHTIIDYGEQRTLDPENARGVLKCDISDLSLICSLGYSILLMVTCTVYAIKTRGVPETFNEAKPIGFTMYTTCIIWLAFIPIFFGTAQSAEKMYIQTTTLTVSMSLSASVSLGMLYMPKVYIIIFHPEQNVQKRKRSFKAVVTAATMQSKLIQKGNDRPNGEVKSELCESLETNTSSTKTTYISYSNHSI

[4] = target: Metabotropic glutamate receptor 5 (Rattus norvegicus, UniProt P31424); assay: Activity at rat mGluR5 by measuring intracellular calcium concentration in CHO cells; type: functional, cell-based
Metabotropic glutamate receptor 5, sequence (P31424 whole entry): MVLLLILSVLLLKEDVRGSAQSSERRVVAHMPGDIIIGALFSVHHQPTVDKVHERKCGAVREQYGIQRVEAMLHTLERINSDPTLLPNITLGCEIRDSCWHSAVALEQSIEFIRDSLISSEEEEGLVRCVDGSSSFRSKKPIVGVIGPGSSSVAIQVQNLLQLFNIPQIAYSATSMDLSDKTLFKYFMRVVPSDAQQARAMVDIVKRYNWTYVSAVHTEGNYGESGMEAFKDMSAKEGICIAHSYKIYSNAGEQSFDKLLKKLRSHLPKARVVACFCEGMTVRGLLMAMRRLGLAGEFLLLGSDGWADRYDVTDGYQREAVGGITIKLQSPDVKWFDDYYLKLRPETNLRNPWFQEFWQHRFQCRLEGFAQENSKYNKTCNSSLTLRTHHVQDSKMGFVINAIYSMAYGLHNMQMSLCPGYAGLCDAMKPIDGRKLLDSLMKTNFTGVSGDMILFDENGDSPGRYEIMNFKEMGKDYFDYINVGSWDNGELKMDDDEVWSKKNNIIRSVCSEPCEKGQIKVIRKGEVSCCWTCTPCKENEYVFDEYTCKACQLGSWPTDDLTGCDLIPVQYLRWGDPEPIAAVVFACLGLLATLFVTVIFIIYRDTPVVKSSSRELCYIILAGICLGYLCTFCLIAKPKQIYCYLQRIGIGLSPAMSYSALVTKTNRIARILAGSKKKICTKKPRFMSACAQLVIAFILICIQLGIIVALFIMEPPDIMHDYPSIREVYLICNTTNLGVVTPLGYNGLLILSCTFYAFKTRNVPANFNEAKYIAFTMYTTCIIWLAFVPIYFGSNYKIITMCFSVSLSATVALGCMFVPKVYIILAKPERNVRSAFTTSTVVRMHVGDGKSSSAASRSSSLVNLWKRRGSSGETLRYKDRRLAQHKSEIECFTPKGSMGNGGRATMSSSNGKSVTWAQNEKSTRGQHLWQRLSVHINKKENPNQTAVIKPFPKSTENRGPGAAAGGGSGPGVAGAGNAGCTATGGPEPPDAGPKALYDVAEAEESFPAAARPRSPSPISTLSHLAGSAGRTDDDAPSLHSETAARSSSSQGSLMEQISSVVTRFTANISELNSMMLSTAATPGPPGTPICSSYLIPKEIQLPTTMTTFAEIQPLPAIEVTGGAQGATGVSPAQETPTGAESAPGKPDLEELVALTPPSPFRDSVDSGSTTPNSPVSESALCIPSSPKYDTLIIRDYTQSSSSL

[5] = target: Metabotropic glutamate receptor 2 (Homo sapiens, UniProt Q14416); assay: Activity at human mGluR2 from BHK cells in [35S]GTP-gamma-S stimulation assay; type: functional, cell-based
Metabotropic glutamate receptor 2, sequence (Q14416 whole entry): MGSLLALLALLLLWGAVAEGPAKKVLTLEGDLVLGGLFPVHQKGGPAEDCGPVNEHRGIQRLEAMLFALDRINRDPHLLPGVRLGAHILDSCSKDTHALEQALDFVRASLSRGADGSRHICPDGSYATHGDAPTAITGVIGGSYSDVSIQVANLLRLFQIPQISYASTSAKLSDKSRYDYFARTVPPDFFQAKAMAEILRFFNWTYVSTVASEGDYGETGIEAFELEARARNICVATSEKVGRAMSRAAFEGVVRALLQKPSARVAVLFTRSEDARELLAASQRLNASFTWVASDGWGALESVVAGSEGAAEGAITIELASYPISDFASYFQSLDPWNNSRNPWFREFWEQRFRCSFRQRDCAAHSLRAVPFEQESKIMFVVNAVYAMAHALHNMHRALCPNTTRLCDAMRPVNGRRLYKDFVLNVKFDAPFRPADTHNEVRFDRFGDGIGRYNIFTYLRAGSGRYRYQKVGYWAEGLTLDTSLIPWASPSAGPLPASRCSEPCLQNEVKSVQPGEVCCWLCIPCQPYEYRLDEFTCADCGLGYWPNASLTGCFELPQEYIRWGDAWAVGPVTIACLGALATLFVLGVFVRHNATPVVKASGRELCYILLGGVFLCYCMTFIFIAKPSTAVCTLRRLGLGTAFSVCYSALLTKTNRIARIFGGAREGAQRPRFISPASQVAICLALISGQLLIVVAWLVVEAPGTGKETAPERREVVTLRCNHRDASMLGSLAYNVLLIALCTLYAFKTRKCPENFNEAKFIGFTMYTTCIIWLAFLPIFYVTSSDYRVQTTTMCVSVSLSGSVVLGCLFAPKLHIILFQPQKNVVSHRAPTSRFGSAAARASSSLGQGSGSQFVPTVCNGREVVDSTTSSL

[6] = target: Metabotropic glutamate receptor 7 (Homo sapiens, UniProt Q14831); assay: Activity at human mGluR7 by measuring cAMP formation in BHK cells; type: functional, cell-based
[7] = target: Metabotropic glutamate receptor 1 (Rattus norvegicus, UniProt P23385); assay: Activity at rat mGluR1 by measuring intracellular calcium concentration in CHO cells; type: functional, cell-based
Metabotropic glutamate receptor 1, sequence (P23385 whole entry): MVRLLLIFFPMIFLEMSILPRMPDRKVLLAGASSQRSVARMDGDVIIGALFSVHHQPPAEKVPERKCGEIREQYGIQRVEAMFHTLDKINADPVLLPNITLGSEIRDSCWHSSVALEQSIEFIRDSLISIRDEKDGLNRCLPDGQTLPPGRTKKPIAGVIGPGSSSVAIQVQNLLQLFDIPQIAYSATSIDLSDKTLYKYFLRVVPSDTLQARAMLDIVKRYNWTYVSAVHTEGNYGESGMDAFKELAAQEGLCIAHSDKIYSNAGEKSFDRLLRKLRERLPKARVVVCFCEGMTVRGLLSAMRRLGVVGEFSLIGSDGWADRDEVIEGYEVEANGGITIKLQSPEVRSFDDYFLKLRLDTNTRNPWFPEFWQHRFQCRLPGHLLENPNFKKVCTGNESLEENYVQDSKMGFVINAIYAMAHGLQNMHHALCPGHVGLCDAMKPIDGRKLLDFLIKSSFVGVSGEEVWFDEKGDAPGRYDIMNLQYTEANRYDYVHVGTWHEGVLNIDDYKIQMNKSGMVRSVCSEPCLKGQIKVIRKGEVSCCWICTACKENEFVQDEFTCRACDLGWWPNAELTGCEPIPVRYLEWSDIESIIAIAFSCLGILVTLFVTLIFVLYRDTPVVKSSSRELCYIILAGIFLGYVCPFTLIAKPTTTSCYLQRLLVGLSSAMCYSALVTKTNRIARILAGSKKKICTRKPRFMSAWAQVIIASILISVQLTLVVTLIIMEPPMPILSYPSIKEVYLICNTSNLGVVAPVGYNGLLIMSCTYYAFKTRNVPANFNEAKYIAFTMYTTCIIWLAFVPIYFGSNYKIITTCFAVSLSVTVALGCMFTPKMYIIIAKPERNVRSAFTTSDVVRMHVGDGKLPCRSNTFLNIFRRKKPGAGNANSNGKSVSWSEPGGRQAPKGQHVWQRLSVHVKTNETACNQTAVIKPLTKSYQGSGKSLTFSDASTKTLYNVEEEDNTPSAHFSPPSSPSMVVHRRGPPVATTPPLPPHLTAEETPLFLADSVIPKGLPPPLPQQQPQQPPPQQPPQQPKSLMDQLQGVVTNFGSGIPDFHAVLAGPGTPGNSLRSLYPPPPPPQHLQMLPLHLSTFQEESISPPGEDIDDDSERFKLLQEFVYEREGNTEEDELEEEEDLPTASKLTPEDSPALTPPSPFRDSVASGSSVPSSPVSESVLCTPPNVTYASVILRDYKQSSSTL

[8] = target: T1, Metabotropic glutamate receptor 4; assay: Functional activity at rat mGluR4

| SMILES | EC50 [1] | Ki [2] | Ki [3] | EC50 [4] | EC50 [5] | EC50 [6] | EC50 [7] | EC50 [8] |
| --- | --- | --- | --- | --- | --- | --- | --- | --- |
| N[C@H](C(=O)O)[C@H]1C[C@@H]1P(=O)(O)O | 13 µM | 7.4 µM | 63 µM | > 1000 µM | > 1000 µM | 700 µM | > 1000 µM | 9.4 µM |
| N[C@H](C(=O)O)[C@@H]1C[C@H]1P(=O)(O)O | 46 µM | 53 µM | 54 µM | > 1000 µM | > 1000 µM | > 1000 µM | > 1000 µM | 49 µM |
| N[C@@H](CCP(=O)(O)O)C(=O)O | 0.34 µM | 0.16 µM | 1.9 µM | > 1000 µM | > 1000 µM | 188 µM | > 1000 µM | 0.51 µM |
| N[C@@H](CCC(=O)O)C(=O)O [GLUTAMIC ACID] | 7.6 µM | 3.4 µM | 3.4 µM |  |  | > 1000 µM |  | 6.1 µM |
